Calls of active or inactive are those of the source. The rule behind the calls is not given here.
Tests used:
[1] = Clearance in ICR mouse at 1 mg/kg, iv measured upto 24 hrs by LC-MS/MS analysis; format: ADME, organism-based; conditions: in vivo
[2] = test system: CT26; assay: Antitumor activity against mouse CT26 cells implanted in Balb/c mouse assessed as increase in infiltration of CD3 positive CD4 positive T lymphocytes in tumors at 25 mg/kg, IG measured after 14 days by flow cytometry; format: functional, organism-based; conditions: time 14.0 day
[3] = AUC (0 to infinity) in ICR mouse at 1 mg/kg, iv measured upto 24 hrs by LC-MS/MS analysis; format: ADME, organism-based; conditions: in vivo
[4] = Acute toxicity in ICR mouse assessed as change in body weight at 1000 mg/kg, po measured after 7 days; format: organism-based; conditions: in vivo, 168 h, time 7 day
[5] = Toxicity in Balb/c mouse bearing mouse CT26 cells assessed as morphological changes in spleen at 6.25 to 25 mg/kg, IG measured after 14 days by hematoxylin and eosin staining based assay; format: organism-based; conditions: in vivo, po, 336 h, dose 6.25-25 mg/kg, time 14 day
[6] = test system: CT26; assay: Induction of anti-tumor immunity in mouse CT26 cells assessed as increase in CXCL10 mRNA expression incubated for 2 days by quantitative real-time PCR analysis; format: functional, cell-based; conditions: dose 0.04-0.44 µM, time 2.0 day
[7] = target: Cytochrome P450 2C9 (Homo sapiens, UniProt P11712); assay: Inhibition of CYP2C9 (unknown origin); format: ADME
[8] = test system: CT26; assay: Antitumor activity against mouse CT26 cells implanted in Balb/c mouse assessed as increase in infiltration of CD3 positive CD8 positive T lymphocytes in tumors at 25 mg/kg, IG measured after 14 days by flow cytometry; format: functional, organism-based; conditions: time 14.0 day
[9] = test system: CT26; assay: Antitumor activity in immunocompetent mouse CT26 cell bearing Balb/c mouse model assessed as induction of IFN-beta release in tumor tissue at 6.25 to 25 mg/kg, IG treated twice a day measured after 14 days by immunohistochemistry staining based assay; format: functional, organism-based; conditions: dose lower 6.25 mg/kg, dose upper […], time 14.0 day
[10] = Permeability across basolateral to apical side in human Caco-2 cells; format: ADME, cell-based
[11] = test system: CT26; assay: Antitumor activity in immunocompetent mouse CT26 cell bearing mouse model assessed as tumor growth inhibition at 25 mg/kg, IG treated twice a day measured after 14 days relative to control; format: functional; conditions: CT26, po, 336 h, time 14 day, read-out: TGI
[12] = target: Cytochrome P450 2D6 (Homo sapiens, UniProt P10635); assay: Inhibition of CYP2D6 (unknown origin); format: ADME
[13] = target: T1, Protein mono-ADP-ribosyltransferase TIPARP (Mus musculus) (UniProt Q8C1B2); assay: Inhibition of PARP7 in mouse CT26 cells assessed as increase in TBK1 phosphorylation incubated for 3 days by Western blot analysis; format: cell-based; conditions: dose 0.14-4 µM, time 3.0 day
T1 sequence (whole entry): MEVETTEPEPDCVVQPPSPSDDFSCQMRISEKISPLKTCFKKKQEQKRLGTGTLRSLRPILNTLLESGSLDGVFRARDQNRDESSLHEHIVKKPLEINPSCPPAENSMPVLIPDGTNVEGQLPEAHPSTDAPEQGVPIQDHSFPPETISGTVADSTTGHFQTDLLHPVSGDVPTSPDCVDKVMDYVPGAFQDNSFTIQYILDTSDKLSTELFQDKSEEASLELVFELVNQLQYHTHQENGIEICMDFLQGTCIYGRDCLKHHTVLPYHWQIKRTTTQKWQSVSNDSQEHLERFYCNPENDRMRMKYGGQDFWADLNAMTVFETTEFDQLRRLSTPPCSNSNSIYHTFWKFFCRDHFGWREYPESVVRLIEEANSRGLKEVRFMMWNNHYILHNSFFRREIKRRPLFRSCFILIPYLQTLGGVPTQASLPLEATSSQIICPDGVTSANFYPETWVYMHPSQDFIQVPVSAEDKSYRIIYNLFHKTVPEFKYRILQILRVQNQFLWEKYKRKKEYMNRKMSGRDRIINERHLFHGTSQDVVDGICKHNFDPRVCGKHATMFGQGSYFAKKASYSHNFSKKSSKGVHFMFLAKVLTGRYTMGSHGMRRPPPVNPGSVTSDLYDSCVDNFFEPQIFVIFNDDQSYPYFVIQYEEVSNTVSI

[14] = Tmax in ICR mouse at 10 mg/kg, IG measured upto 24 hrs by LC-MS/MS analysis; format: ADME, organism-based; conditions: in vivo, po
[15] = C0 in ICR mouse at 1 mg/kg, iv measured upto 24 hrs by LC-MS/MS analysis; format: ADME, organism-based; conditions: in vivo
[16] = target: CYP3A4/5 (Homo sapiens, UniProt P08684+P20815); assay: Inhibition of CYP3A4/5 (unknown origin); format: ADME, protein assay
[17] = Toxicity in Balb/c mouse bearing mouse CT26 cells assessed as morphological changes in kidney at 6.25 to 25 mg/kg, IG measured after 14 days by hematoxylin and eosin staining based assay; format: organism-based; conditions: in vivo, po, 336 h, dose 6.25-25 mg/kg, time 14 day
[18] = test system: CT26; assay: Antitumor activity in immunocompetent mouse CT26 cell bearing Balb/c mouse model assessed as reduction in Ki-67 protein expression level in tumor tissue at 6.25 to 25 mg/kg, IG treated twice a day measured after 14 days; format: functional, organism-based; conditions: dose lower 6.25 mg/kg, dose upper […], time 14.0 day
[19] = Tmax in ICR mouse at 1 mg/kg, iv measured upto 24 hrs by LC-MS/MS analysis; format: ADME, organism-based; conditions: in vivo
[20] = Toxicity in Balb/c mouse bearing mouse CT26 cells assessed as morphological changes in liver at 6.25 to 25 mg/kg, IG measured after 14 days by hematoxylin and eosin staining based assay; format: organism-based; conditions: in vivo, po, 336 h, dose 6.25-25 mg/kg, time 14 day
[21] = test system: CT26; assay: Antitumor activity against mouse CT26 cells implanted in immunodeficient Balb/c mouse assessed as inhibition of tumor growth at 25 mg/kg, IG twice daily measured after 10 days relative to control; format: functional; conditions: CT26, po, 240 h, time 10 day, read-out: TGI
[22] = Oral bioavailability in ICR mouse at 10 mg/kg measured upto 24 hrs by LC-MS/MS analysis; format: ADME, organism-based; conditions: in vivo
[23] = Acute toxicity in ICR mouse assessed as change in body weight at 500 mg/kg, po measured after 7 days; format: organism-based; conditions: in vivo, 168 h, time 7 day
[24] = test system: CT26; assay: Antitumor activity in immunocompetent Balb/c mouse CT26 cell bearing mouse model assessed as change in tumor cell morphology at 6.25 to 25 mg/kg, IG treated twice a day measured after 14 days by hematoxylin and eosin staining based assay; format: functional, organism-based; conditions: dose lower 6.25 mg/kg, dose upper […], time 14.0 day
[25] = Half life in ICR mouse at 1 mg/kg, iv measured upto 24 hrs by LC-MS/MS analysis; format: ADME, organism-based; conditions: in vivo
[26] = Antiproliferative activity against mouse AML12 cells measured after 6 days incubation by MTT assay; format: toxicity, cell-based
[27] = test system: CT26; assay: Induction of anti-tumor immunity in mouse CT26 cells assessed as increase in IFN-beta mRNA expression incubated for 2 days by quantitative real-time PCR analysis; format: functional, cell-based; conditions: dose 0.04-0.44 µM, time 2.0 day
[28] = Cmax in ICR mouse at 1 mg/kg, iv measured upto 24 hrs by LC-MS/MS analysis; format: ADME, organism-based; conditions: in vivo
[29] = test system: CT26; assay: cells; conditions: Mus musculus, CT26, 144 h
[30] = MRT (0 to infinity) in ICR mouse at 1 mg/kg, iv measured upto 24 hrs by LC-MS/MS analysis; format: ADME, organism-based; conditions: in vivo
[31] = Half life in ICR mouse at 10 mg/kg, IG measured upto 24 hrs by LC-MS/MS analysis; format: ADME, organism-based; conditions: in vivo, po

Cytochrome P450 2C9, sequence (P11712 whole entry): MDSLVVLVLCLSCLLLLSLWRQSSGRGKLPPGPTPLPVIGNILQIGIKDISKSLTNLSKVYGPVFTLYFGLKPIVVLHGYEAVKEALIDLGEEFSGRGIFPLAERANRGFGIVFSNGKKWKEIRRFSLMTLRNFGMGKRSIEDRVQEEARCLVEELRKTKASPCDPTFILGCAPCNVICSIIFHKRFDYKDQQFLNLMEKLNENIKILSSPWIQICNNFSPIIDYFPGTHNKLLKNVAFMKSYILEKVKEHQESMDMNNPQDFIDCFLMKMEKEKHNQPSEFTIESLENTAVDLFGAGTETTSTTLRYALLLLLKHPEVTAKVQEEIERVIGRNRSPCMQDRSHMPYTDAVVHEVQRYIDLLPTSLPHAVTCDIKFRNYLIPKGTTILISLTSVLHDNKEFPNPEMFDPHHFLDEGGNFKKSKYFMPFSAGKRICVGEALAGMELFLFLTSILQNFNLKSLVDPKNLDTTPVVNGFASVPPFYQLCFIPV
Cytochrome P450 2D6, sequence (P10635 whole entry): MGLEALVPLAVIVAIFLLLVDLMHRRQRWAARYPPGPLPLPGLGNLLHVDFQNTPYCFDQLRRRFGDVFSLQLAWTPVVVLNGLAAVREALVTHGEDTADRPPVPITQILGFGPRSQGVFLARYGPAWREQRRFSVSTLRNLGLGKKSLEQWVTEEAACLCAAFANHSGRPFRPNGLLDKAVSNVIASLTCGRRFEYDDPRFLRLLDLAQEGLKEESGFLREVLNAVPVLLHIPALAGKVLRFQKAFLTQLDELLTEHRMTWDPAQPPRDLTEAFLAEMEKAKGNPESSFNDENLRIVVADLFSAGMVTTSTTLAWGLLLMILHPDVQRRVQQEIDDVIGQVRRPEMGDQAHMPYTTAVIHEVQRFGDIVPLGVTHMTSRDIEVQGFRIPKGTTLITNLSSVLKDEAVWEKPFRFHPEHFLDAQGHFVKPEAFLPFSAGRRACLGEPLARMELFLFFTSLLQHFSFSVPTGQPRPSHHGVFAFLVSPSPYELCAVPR

Compound: C[C@@H](C(=O)N1CCN(c2ncc(C(F)(F)F)cn2)CC1)n1cc2cccc(C(N)=O)c2n1
- clearance [1]: 9.62 mL/min/kg
- Activity [2]: Active
- AUC(0-inf) [3]: 1800 ng·h/mL
- Activity [4]: Non-Toxic
- Activity [5]: Non-Toxic
- Activity [6]: Dose-Dependent Effect
- IC50 [7]: > 30 µM
- Activity [8]: Active
- Activity [9]: Active
- Papp B→A [10]: 20.7 ×10⁻⁶ cm/s
- inhibition in vivo at 25 mg/kg [11]: 83%
- IC50 [12]: > 30 µM
- inhibition [13]: Dose-Dependent Effect
- Tmax [14]: 0.5 h
- C0 at 24 h [15]: 1590 ng/mL
- IC50 [16]: > 30 µM
- Activity [17]: Non-Toxic
- Activity [18]: Active
- Tmax [19]: 4.8 min
- Activity [20]: Non-Toxic
- inhibition in vivo at 25 mg/kg [21]: 4%
- bioavailability [22]: 94.6%
- Activity [23]: Non-Toxic
- Activity [24]: Active
- half-life [25]: 1.22 h
- IC50 at 6 days [26]: > 50 µM
- Activity [27]: Dose-Dependent Effect
- Cmax [28]: 1360 ng/mL
- IC50 [29]: 36.1 µM
- MRT inf [30]: 1.52 h
- half-life [31]: 1.76 h

Source: ChEMBL document CHEMBL5537136 (J Med Chem, 2024)
